The test system of one experiment is Ewing's sarcoma. Briefly: Confocal microscopy apoptosis. The experiment is classed as cell-based, human. The note with it: 200 ng/ml; 24 hrs. On the procedure: (§1) More extensive studies of the effects of MA and with truncated synthetic forms of MA (MAS) on a wide range of other human tumor cells were carried out using three-dimensional confocal microscopy. Cells were cultured and then seeded onto gelatinized glass chamber slides and incubated 24 hrs with the various test materials. The slides were then fixed with formalin and treated serially with Triton X-100 (0.01%) for 10 min at 25°, 0.4 ug/ml fluorescein isothiocyanate (FITC)-labeled Phalloidin (Sigma Chem. Co.) at room temperature for 30 min to bind actin, washed with PBS and the DNA stained with Propidium iodide (PI) (0.5 ug·ml) (Sigma Chemical Co.), for 15 min. The stained slides were washed and mounted on slow fade (Molecular Probes, Inc., Eugene, Oreg.) and examined through a dual emission filter XF53 (Omega, Inc., Brattlesboro, Va.) by fluorescent microscopy. In some experiments only DNA staining was performed. In these instances Triton X-100 was not used. The slides were stained with PI and examined for cell morphology and chromatin degradation under 3D confocal microscopy.

For the next experiment, the system named is KS Y-1 cells. Briefly: Confocal microscopy apoptosis. The experiment is classed as cell-based, human. The note with it: 200 ng/ml; 24 hrs. The method, then: as §1
The subject of experiment [1] is carcinoma of the breast HTB124. Briefly: Confocal microscopy apoptosis. Type of experiment: cell-based, human. The note with it: 200 ng/ml; 24 hrs. The method, then: as §1
Another experiment concerns carcinoma of the colon. Briefly: Confocal microscopy apoptosis. Type of experiment: cell-based, human. The note with it: 200 ng/ml; 24 hrs. The method, then:
as §1

Experiment [2] has as its system carcinoma of the kidney HTB46. Description: Confocal microscopy apoptosis. Type of experiment: cell-based, human. The note with it: 200 ng/ml; 24 hrs. On the procedure: as §1
Experiment [3] deals with carcinoma of the lung HTB184. Description: Confocal microscopy apoptosis. The note with it: 200 ng/ml; 24 hrs. The experiment is classed as cell-based, human. The method, then:
as §1

The subject of experiment [4] is carcinoma of the pancreas CRL 1682. Description: Confocal microscopy apoptosis. The note with it: 200 ng/ml; 24 hrs. Type of experiment: cell-based, human. The method, then:
as §1

The next experiment concerns fibrosarcoma 4TB166. Description: Confocal microscopy apoptosis. Type of experiment: cell-based, human. The note with it: 200 ng/ml; 24 hrs. The method, then: as §1
The next experiment has as its system gliobastoma HTB16. Description: Confocal microscopy apoptosis. The experiment is classed as cell-based, human. The note with it: 200 ng/ml; 24 hrs. On the procedure:
as §1

In experiment [5] the test system is leukemia and lymphoma cell lines: HUT78, DAVDI, HG, SULTAN, T-cell lymphoma. Briefly: Confocal microscopy apoptosis. Type of experiment: cell-based, human. The note with it: 200 ng/ml; 24 hrs. The method, then: as §1
Another experiment relates to melanoma HTB67. Description: Confocal microscopy apoptosis. The note with it: 200 ng/ml; 24 hrs. Type of experiment: cell-based, human. The method, then: as §1
For experiment [6], the system named is prostate carcinoma cell line PC3. Briefly: Confocal microscopy apoptosis. Type of experiment: cell-based, human. The note with it: 200 ng/ml; 24 hrs. On the procedure:
as §1

The test system of experiment [7] is prostate carcinoma cell line PC4. Briefly: Confocal microscopy apoptosis. The experiment is classed as cell-based, human. The note with it: 200 ng/ml; 24 hrs. On the procedure:
as §1

Experiment [8] in a line: Lethally irradiated rats and mice. The note with it: treated at time of radiation, 3×/week for 4 weeks. The method, then:
In order to determine in vivo relevance of the prohematopoietic effects of MA treated rats and mice under several conditions of bone marrow suppression. First, the effects of native MA and pMA and of the synthetic 15-mer MAS1 were treated for their capacity to reduce or prevent the effects of lethal doses of gamma irradiation. […] MA, pMA, MAS1, and various control polypeptides were given 48 and 24 hrs before, during, or 24 hrs after radiation. The animals treated prior to radiation received either 100 ng vs. 1 ug (rats) or 50 ng vs. 500 ng (mice) as 2 subcutaneous injections.
It is not yet possible to determine the precise molar dose of pMA because of less certainty on its full-length sequence.
To ascertain that the MA effect did promote hematopoiesis in these animals we examined the bone marrow for cellularity and colony formation and determined peripheral blood counts.

Experiment [9] in a line: Lethal dose taxol in Sprague-Dawley rats. The experiment is classed as in vivo. The note with it: for survival of pretreated animals: low dose, two doses 24 and 48 hrs before taxol; for survival maintained to day 80 / survival on day 5: therapy maintained 28 days; for survival on day 5: low or high dose. The method, then:
Sprague-Dawley rats were given taxol in large lethal doses, 4.5 mg in one I.P. inoculation. […] Bone marrow suppression can also be a side effect of the clinical use of taxol.^179 As in the radiation experiments, either MA, pMA, MAS1, or various polypeptide controls were given subcutaneously only in two doses 24 and 48 hrs before taxol treatment or were given 3×/week for 4 weeks. […]

The nature of the next experiment: Acutely bled rats. Type of experiment: in vivo, Sprague-Dawley rats. The note with it: i.p. 24 and 48 hrs after 35-40% blood loss. The text has this: To delineate the effects of MA on hematopoiesis in the absence of any external bone marrow suppression, blood (35-40% of total blood volume) was removed from five Sprague-Dawley rats by intracardiac puncture. […] Each panel illustrates the mean values for the three animals treated with MAS1. Thus, MA and related derivatives have potent pro-hematopoietic effects.

Experiment [10] relates to human primitive hematopoietic stem cells. Briefly: Long term cultures (LTC-IC, stroma-free) of CD34+, CD38− cells from human BMMC. The experiment is classed as cell-based. On the procedure:
In the human system, a long-term culture-initiating assay (LTC-IC) can be used to detect cells that can generate myeloid clonogenic cells (CFC/colony forming cells) in long-term cultures for a minimum of 5 weeks. Bone marrow stromal was produced by culturing 107 fresh BM-MNC in a T25 flash for at least 2 weeks in 5 mL stromal medium; 12.5% horse [HS] and 12.5% fetal calf serum [FCS]; both from hyclone [Logan, Utah], Iscove's modified Dulbecco's medium [IMDM, GIBCO-BRL], 2-mercaptoethanol [Sigma, st. Louis, Mo.], 10^−6 mol/L hydrocortisone [Sigma] and penicillin/streptomycine.
One or 2 days before co-cultures, bone marrow stroma was irradiated with 15Gy and plated at 7×10^3/cm^2 in 24-well plates to form pre-established stromal layers for the long-term cultures. Limiting dilution was 1 to 1000 CD34+ bone marrow/cord blood cells and equivalent aliquots, i.e., limiting dilutions of the cells grown in long-term cultures stroma-free cultures after 2 to 20 weeks were seeded on top of the irradiated bone marrow stroma in culture medium containing IMDM, 12.5% HS, 12.5% FCS, 2-mercptoethanol, and 10^−6 mon-hydrocortisone for 5 weeks LTC-IC assay period. Non-adherent cells were removed from the cultures, combined with the corresponding trypsinized adherent cells, washed and assayed for colony forming units (CFU-Cs) in methylcellulose medium containing 1.3% methylcellulose (Fluka Chemilka Biochemika, buck\hs, Switzerland), 30% FCS, EPO (3 U/ml), IL-3 (20 ng/ml), G-CSF (20 ng/ml), GM-CSF (20 ng/ml) and KL (c-kit, 50 ng/ml). These cultures were incubated at 37° C. and colonies were scored 2 to 3 weeks later. LTC-IC enumeration was based on the number of CFU-C scored in the limiting assays [LDA] and another technique.
Stroma-free long-term cultures were performed as follows. 2 to 10×10^3 CD34+/CD34^−CD38^− from bone marrow/CB/PBMC cells were cultured in quadrutriplicate flat bottomed 24 well plates in 1 ml to of IMDM supplemented with 10% FCS and the following cytokines: IL-3 (10 ng/ml), IL-6 (10 ng/ml), KL [c-kit 50 ng/ml, FL (50 ng/ml) and TPO (10 U/ml), which added, alone or in combination of two or more factors, to each series of microwells twice a week. The wells were grown at 37° C. and share a number of features with in vivo murine long-term repopulating cells. These include assay for cobblestone areas colony forming cells (CAFC), high proliferative potentials colony-forming cells (HPP-CFC), CFU-GEMM, CFU-B1 (blast colony forming units).

A further experiment has as its system human tumor cells. Type of experiment: cell-based. The note with it: controls at equimolar or 5 to 10× greater concentrations. On the procedure: The anti-tumor activities of MA were assessed in several in vitro and in vivo systems using published methods.^166 In vitro studies were with a wide variety of human tumor cell lines as well as short-term cultures of cells from biopsy samples obtained from tumors. The assays included effects of MA on colony formation, cell number and viability (trypan blue), and apoptosis. Four measures of microscopy were used. In vivo studies included the effects of MA on tumors induced in immunodeficient mice by xenotransplanted various human neoplastic cells, spontaneous neoplasms of immuno-competent mice and rats, and a few standard tumors in immuno-competent mice. Representative examples are presented.
Cells (5×10^5/ml) were seeded in modified Eagle's medium supplemented with 10% FCS, 10% conditioned medium form PHA stimulated human lymphocytes, 2 mM glutamine in 0.8% V/V methylcellulose with or without various treatments in a final volume of 1.0 ml. Then 0.1 ml aliquots were seeded in 96 well flat bottom microtest plates and incubated at 37° C. in 5% CO2 in air for 7 days. Aggregates containing 50 cells or more were scored as colonies.
5×10^5 cells were seeded in triplicate on 24 gelatin coated wells in conditions as described for Panel A and treated with the indicated test materials. After 3 days the cells were dislodged from their monolayers by gentle pipetting with cell dissociation buffer (Life Technologies), counted after trypan blue staining and aliquots examined for Annexin V staining by indirect IFA […].
Studies of the anti-tumor cell effects of MA were extended to other carcinomas, melanoma, some hematopoietic tumors, and carcinomas of the colon, prostate, breast, lung, brain, pancreas, and kidney-using cell lines from these tumors. […] Many more types of tumor cells were studied utilizing other assays (see below).

Experiment [11] has as its system primary human tumor cells. Description: Short-term cultured primary human tumor cells, growth and apoptosis. Type of experiment: cell-based. The note with it: 200 ng/ml; 3 days culture; 10% serum. The text has this: Because cell lines might be more susceptible to growth inhibition and apoptosis, the effects of MA on short-term cultured human tumor cells were investigated. The cells were obtained from biopsied specimens and immediately cultured (primary cultures). The results were similar to the results with tumor cell lines. […] FIG. 3, Panels A and B are representative results with primary breast and prostate carcinomas respectively. These pro-apoptotic effects of MA on human tumor cells were with 10% serum rather than the lower concentrations sometimes used to make cells more susceptible to apoptosis.
More extensive studies of primary human tumor cells were carried out utilizing confocal microscopy.
With the exception of the kidney carcinoma, which was a biopsy sample direct from the tumor, the samples were from pleural effusions which developed after metastasis to the lung. The breast, prostate, and colon carcinomas were freshly obtained and immediately cultured, whereas the lung and kidney carcinomas went through 22 and 18 passes respectively before they were used in these studies. All cells were examined after 3 days culture in the presence or absence of MA (200 ng/ml) or other treatments. […]

In another experiment the test system is HIV-1 gene expression. Description: HIV-1 transgenic mice, pups feeding from treated mothers. The experiment is classed as in vivo. The text has this:
The transgenic mice contain 5.1 kb of the HIV-1 proviral genome, lacking gag and pol genes and 2.3 kb of vector.^172 The newly developed transgenic rat contains the same HIV-1 sequences and vector.
Twenty-four hours after birth the mothers were either inoculated subcutaneously daily for 10 days or received an implanted osmotic pump delivering 30-150 pmoles of either native or synthetic MA or pMA. Various control polypeptides were used at equimolar or vast molar excess. The newborn pups were then allowed to feed from the foster mother breast milk over the entire period. Since the animals are at risk from needle inoculation, breastfeeding was the chosen route for MA administration.
In these experiments total RNA was extracted from samples of skin RNA206 10 days after birth of MA treated and untreated mice. One ug of RNA was reverse transcribed into cDNA using random hexamer primer and […] reverse transcriptase (Life Technologies, Inc.) in a final vol. Of 30 ul. Three ul of each reaction was used for PCR amplification of the HIV-1 gene sequences (env, tat, nef, and rev) as described […], and glyceraldehyde 3-phosphate dehydrogenase (GAPDH) was amplified from each sample for normalization. After 25 cycles, 10% of the products were resolved by electrophoresis on 2% agarose gels, transferred to nitrocellulose membranes by Southern blotting, and hybridized to fluorescein isthiocyanate-labeled oligonucleotide probes complementary to internal sequences of the amplicons […]. Bound probes were detected by chemiluminescence (Amersham) and relative mRNA levels determined by densitrometry after normalization with GAPDH mRNA levels.

For the substance “VRFESIRLPGCPRGV (listed as Homo sapiens) [MAS1]”, the induction of apoptosis entry (in the experiment with Ewing's sarcoma; in the experiment with KS Y-1 cells; in experiment [1]; in the experiment on carcinoma of the colon; in experiment [2]; in experiment [3]) was “induced apoptosis” each time. Further, the induction of apoptosis entry (in [4]; in the experiment on fibrosarcoma 4TB166; with gliobastoma HTB16; in experiment [5]; with melanoma HTB67; in experiment [6]) was “induced apoptosis” in each case. The induction of apoptosis entry in experiment [7] is recorded as “induced apoptosis”. Moreover, the survival in experiment [8] (higher dose, over 100 days) amounted to 100%; in [8] (lowest doses), 80%. Further, the “survival of pretreated animals” value in experiment [9] is “Sixty-percent”. The entries for the “survival maintained to day 80” value in [9] (high dose (1000 ng)) and in [9] (low dose (100 ng)) were around 80% and “about 60%”, respectively. For the same substance, the “survival on day 5” value in [9] was found to be 100%. Further, the “recovery of peripheral blood cells” value in “Acutely bled rats” is given as “prompt recovery”. In addition, in experiment [10], the “Rx MAS1: % of CD1” value came to 35%. Also, the “Rx MAS1: % of CD68” value in experiment [10] is 27%.

Turning to “pMA: natural peptide 38 amino acids in length, β-hCG 55-92 (SEQ ID NO: 3) (VVCNYRDVRFESIRLPGCPRGVNPVVSYAVALSCQCAL; listed as Homo sapiens)”, the “inhibition of growth / induction of apoptosis of neoplastic cells” value in the experiment with human tumor cells is on record as “induce apoptotic death”. For the same substance, the “growth inhibition and apoptosis of primary human tumor cells” value in experiment [11] is “effective”. Moreover, in the experiment on HIV-1 gene expression (30-150 pmoles), the “weight over the ten day period” value is “quadrupled their weight”. In the experiment on HIV-1 gene expression (mothers treated, pups breast fed), the “survival / development of pups (qualitative)” value was “survived”. In addition, in the experiment with HIV-1 gene expression (mouse, in vivo), the “HIV-1 viral expression in tissues” value is “marked inhibition of viral expression”. Further, the survival in [8] (higher dose, over 100 days) was 100%. In addition, the “survival of pretreated animals” value in experiment [9] is listed as “Sixty-percent”. In addition, the results for the “survival maintained to day 80” value in experiment [9] (high dose (1000 ng)) and in experiment [9] (low dose (100 ng)) were around 80% and “about 60%”, respectively. Further, the “survival on day 5” value in experiment [9] is reported as 100%.

For the origin of these results see patent US9175077B2, “Nucleic acids encoding biologically active polypeptides derived from a novel early stage pregnancy factor designated maternin (MA)” (NOBEL BIOSCIENCES LLC, priority 1999, dated 2015).
